Test results reported in paper PMC9304322, “Targeting retinoic acid receptor alpha-corepressor interaction activates chaperone-mediated autophagy and protects against retinal degeneration” (Nature Communications, 2022).
Several values for one entry are separate records, joined by “and”; a condition that tells them apart may be missing. Identical values can stand only once.

Legend:
NIH3T3 cells = experiment: Microarray transcriptional changes; type: cell-based, mouse; design: Ratio of expression relative to untreated cells, Crtam (NM_019465) / Ratio of expression relative to untreated cells, 4930594C11Rik (NR_024017) / Ratio of expression relative to untreated cells, Non-coding chr6:36765550-36793825_F / Ratio of expression relative to untreated cells, Anti-sense ENSMUST00000097448 / Ratio of expression relative to untreated cells, Non-coding chr1:64232564-64349617_R / Ratio of expression relative to untreated cells, Foxa2 (NM_010446) / Ratio of expression relative to untreated cells, Non-coding chr15:83266264-83294664_F / Ratio of expression relative to untreated cells, Nqo1 (NM_008706) / Ratio of expression relative to untreated cells, Gsta4 (NM_010357) / Ratio of expression relative to untreated cells, E330014E10Rik (NM_001122668) / Ratio of expression relative to untreated cells, AU017674 (CK334688) / Ratio of expression relative to untreated cells, Defb12 (NM_152802) / Ratio of expression relative to untreated cells, Non-coding chr1:138570107-138632310_F / Ratio of expression relative to untreated cells, Non-coding chr16:39984031-40081556_R / Ratio of expression relative to untreated cells, Gm5106 (XR_168418) / Ratio of expression relative to untreated cells, Ushbp1 (NM_181418) / Ratio of expression relative to untreated cells, Non-coding chr11:70196232-70203307_R / Ratio of expression relative to untreated cells, Eno4 (NM_178689) / Ratio of expression relative to untreated cells, Non-coding chr13:64044376-64045368_R / Ratio of expression relative to untreated cells, Dsg4 (AY170623) / Ratio of expression relative to untreated cells, Stx2 (NM_007941) / Ratio of expression relative to untreated cells, Non-coding chr12:52944867-52971992_R / Ratio of expression relative to untreated cells, Htr1b (NM_010482) / Ratio of expression relative to untreated cells, Non-coding chr16:44717531-44724206_F / Ratio of expression relative to untreated cells, Non-coding chr5:54053328-54053870_F: unit not given here; settings: 20μM for 24 h; for Ratio of expression relative to untreated cells, 4930594C11Rik (NR_024017) / Ratio of expression relative to untreated cells, Anti-sense ENSMUST00000097448 / Ratio of expression relative to untreated cells, Crtam (NM_019465) / Ratio of expression relative to untreated cells, Defb12 (NM_152802) / Ratio of expression relative to untreated cells, Dsg4 (AY170623) / Ratio of expression relative to untreated cells, Eno4 (NM_178689) / Ratio of expression relative to untreated cells, Foxa2 (NM_010446) / Ratio of expression relative to untreated cells, Gm5106 (XR_168418) / Ratio of expression relative to untreated cells, Htr1b (NM_010482) / Ratio of expression relative to untreated cells, Non-coding chr1:64232564-64349617_R / Ratio of expression relative to untreated cells, Non-coding chr5:54053328-54053870_F / Ratio of expression relative to untreated cells, Non-coding chr6:36765550-36793825_F / Ratio of expression relative to untreated cells, Non-coding chr11:70196232-70203307_R / Ratio of expression relative to untreated cells, Non-coding chr12:52944867-52971992_R / Ratio of expression relative to untreated cells, Non-coding chr13:64044376-64045368_R / Ratio of expression relative to untreated cells, Non-coding chr15:83266264-83294664_F / Ratio of expression relative to untreated cells, Non-coding chr16:39984031-40081556_R / Ratio of expression relative to untreated cells, Non-coding chr16:44717531-44724206_F / Ratio of expression relative to untreated cells, Ushbp1 (NM_181418) / Ratio of expression relative to untreated cells, AU017674 (CK334688) / Ratio of expression relative to untreated cells, E330014E10Rik (NM_001122668) / Ratio of expression relative to untreated cells, Gsta4 (NM_010357) / Ratio of expression relative to untreated cells, Non-coding chr1:138570107-138632310_F / Ratio of expression relative to untreated cells, Nqo1 (NM_008706): NIH3T3; for Ratio of expression relative to untreated cells, 4930594C11Rik (NR_024017) / Ratio of expression relative to untreated cells, Anti-sense ENSMUST00000097448 / Ratio of expression relative to untreated cells, Crtam (NM_019465) / Ratio of expression relative to untreated cells, Defb12 (NM_152802) / Ratio of expression relative to untreated cells, Dsg4 (AY170623) / Ratio of expression relative to untreated cells, Eno4 (NM_178689) / Ratio of expression relative to untreated cells, Foxa2 (NM_010446) / Ratio of expression relative to untreated cells, Gm5106 (XR_168418) / Ratio of expression relative to untreated cells, Htr1b (NM_010482) / Ratio of expression relative to untreated cells, Non-coding chr1:64232564-64349617_R / Ratio of expression relative to untreated cells, Non-coding chr5:54053328-54053870_F / Ratio of expression relative to untreated cells, Non-coding chr6:36765550-36793825_F / Ratio of expression relative to untreated cells, Non-coding chr11:70196232-70203307_R / Ratio of expression relative to untreated cells, Non-coding chr12:52944867-52971992_R / Ratio of expression relative to untreated cells, Non-coding chr13:64044376-64045368_R / Ratio of expression relative to untreated cells, Non-coding chr15:83266264-83294664_F / Ratio of expression relative to untreated cells, Non-coding chr16:39984031-40081556_R / Ratio of expression relative to untreated cells, Non-coding chr16:44717531-44724206_F / Ratio of expression relative to untreated cells, Ushbp1 (NM_181418): direction Down; for Ratio of expression relative to untreated cells, AU017674 (CK334688) / Ratio of expression relative to untreated cells, E330014E10Rik (NM_001122668) / Ratio of expression relative to untreated cells, Gsta4 (NM_010357) / Ratio of expression relative to untreated cells, Non-coding chr1:138570107-138632310_F / Ratio of expression relative to untreated cells, Nqo1 (NM_008706): direction Up
Method: Total RNA of the treated cells was extracted using TRIzol (Invitrogen) and purified with RNeasy chromatography (Qiagen). Cy3-labeled RNA (0.6 μg) from each condition was hybridized to Agilent Mouse 8x60K. Data were processed using the oligo package and normalized using Robust Multiarray Average (RMA) method. […] Pathway analysis was performed using the STRING database ([…]).

[1] = tested on: NIH3T3 cells control (empty vector) or knock-down (KD) for N-CoR1; experiment: CMA activity in NIH3T3 control or knock-down for N-CoR1; type: cell-based, mouse; design: CMA activity: unit not given here; settings: for activating effect on CMA upon knock-down of NCOR1: 20μM for 24 h; for CMA activity: Fig. 2h, individual replicate values
Method: NIH3T3 mouse fibroblasts (CRL-1658), CaCo2 cells human colorectal adenocarcinoma (HTB-3), and the N2a neuroblastoma cell line (CCL-131) were obtained from the American Type Culture Collection and were validated by genomic PCR. Primary human fibroblasts (GM01651) were from Coriell Repository. Cells were cultured to full confluence in a 37 °C incubator with 5% CO2 in complete Dulbecco’s modified Eagle’s medium (DMEM, Sigma #D5030) supplemented with 10% heat-inactivated newborn calf serum (HyClone #SH30401.02HI), 1% penicillin/streptomycin/fungizone (Invitrogen, #10072322). All the cell lines were tested for mycoplasma contamination using DNA staining protocol with Hoechst 33258 dye and none of them was found positive. Knock-down of Ncor1 was done using lentiviral mediated shRNA (SHCLNG-NM_011308) from the Sigma Mission library following standard procedures. The efficiency of knock-down was tested by immunoblot. Cell viability was measured using the CellTiter-Blue kit (Promega, #G9241) 24 h after the addition of the different stressors according to the manufacturer’s instructions. All cell lines were validated by genomic PCR.
Cells were transduced with lentivirus carrying the KFERQ-PS-Dendra reporter as before. Cells were photoactivated by exposure to a 3.5 mA (current constant) light emitting diode (LED: Norlux, 405 nm) for 3 min and then plated in glass-bottom 96 well plates. At the desired times, cells were fixed with 4% PFA and imaged using high-content microscopy (Operetta system, Perkin Elmer). Images were quantified using the manufacturer’s software in a minimum of 1,200 cells in 9 independent fields per well. […] This was particularly important in the case of primary human cells where the efficiency of transduction was ~65%. To avoid confounding effects for drug-induced changes in cell volume or adherence to the plate that could bring a fraction of the cells per field outside of focus, we set a threshold to count only […] that have at least 1/10 of the average number of […] detected in the untreated wells for each cell type (3–4 puncta/cell in the case of NIH3T3 and N2a cells and 5 puncta/cell in primary human fibroblasts).

Structure (SMILES) | Ratio of expression relative to untreated cells, Stx2 (NM_007941) (NIH3T3 cells) | Ratio of expression relative to untreated cells, 4930594C11Rik (NR_024017) (NIH3T3 cells) | Ratio of expression relative to untreated cells, Anti-sense ENSMUST00000097448 (NIH3T3 cells) | Ratio of expression relative to untreated cells, Crtam (NM_019465) (NIH3T3 cells) | Ratio of expression relative to untreated cells, Defb12 (NM_152802) (NIH3T3 cells) | Ratio of expression relative to untreated cells, Dsg4 (AY170623) (NIH3T3 cells) | Ratio of expression relative to untreated cells, Eno4 (NM_178689) (NIH3T3 cells) | Ratio of expression relative to untreated cells, Foxa2 (NM_010446) (NIH3T3 cells) | Ratio of expression relative to untreated cells, Gm5106 (XR_168418) (NIH3T3 cells) | Ratio of expression relative to untreated cells, Htr1b (NM_010482) (NIH3T3 cells) | Ratio of expression relative to untreated cells, Non-coding chr1:64232564-64349617_R (NIH3T3 cells) | Ratio of expression relative to untreated cells, Non-coding chr5:54053328-54053870_F (NIH3T3 cells) | Ratio of expression relative to untreated cells, Non-coding chr6:36765550-36793825_F (NIH3T3 cells) | Ratio of expression relative to untreated cells, Non-coding chr11:70196232-70203307_R (NIH3T3 cells) | Ratio of expression relative to untreated cells, Non-coding chr12:52944867-52971992_R (NIH3T3 cells) | Ratio of expression relative to untreated cells, Non-coding chr13:64044376-64045368_R (NIH3T3 cells) | Ratio of expression relative to untreated cells, Non-coding chr15:83266264-83294664_F (NIH3T3 cells) | Ratio of expression relative to untreated cells, Non-coding chr16:39984031-40081556_R (NIH3T3 cells) | Ratio of expression relative to untreated cells, Non-coding chr16:44717531-44724206_F (NIH3T3 cells) | Ratio of expression relative to untreated cells, Ushbp1 (NM_181418) (NIH3T3 cells) | also measured
Clc1ccc2c(c1)OCC(c1ccc(-c3ccccc3)cc1)=N2 [CA39] | 0.118 | 0.02758 | 0.03251 | 0.02443 | 0.01369 | 0.04187 | 0.1079 | 0.05303 | 0.2892 | 0.02191 | 0.044 | 0.08567 | 0.01728 | 0.1333 | 0.02965 | 0.157 | 0.07415 | 0.3908 | 0.01733 | 0.1898 | Ratio of expression relative to untreated cells, AU017674 (CK334688) (NIH3T3 cells): 18.0101; Ratio of expression relative to untreated cells, E330014E10Rik (NM_001122668) (NIH3T3 cells): 1.584; Ratio of expression relative to untreated cells, Gsta4 (NM_010357) (NIH3T3 cells): 2.331; Ratio of expression relative to untreated cells, Non-coding chr1:138570107-138632310_F (NIH3T3 cells): 7.863; Ratio of expression relative to untreated cells, Nqo1 (NM_008706) (NIH3T3 cells): 1.3; activating effect on CMA upon knock-down of NCOR1 [1]: completely ablated; CMA activity ([1]; Ctr cells): 28.3 and 30.0 and 31.5; CMA activity ([1]; NCOR(-) (NCoR1 KD) cells): 3.7 and 5.0 and 5.1
CC(=O)Nc1ccc(C2=Nc3ccc(Cl)cc3OC2)cc1 [CA77] | 0.09232 | 0.0118 | 0.02606 | 0.02383 | 0.01656 | 0.02136 | 0.2317 | 0.03773 | 0.09934 | 0.04553 | 0.03926 | 0.08612 | 0.01829 | 0.1429 | 0.03376 | 0.1362 | 0.06682 | 0.07815 | 0.03891 | 0.1648 | Ratio of expression relative to untreated cells, AU017674 (CK334688) (NIH3T3 cells): 22.5451; Ratio of expression relative to untreated cells, E330014E10Rik (NM_001122668) (NIH3T3 cells): 33.8974; Ratio of expression relative to untreated cells, Gsta4 (NM_010357) (NIH3T3 cells): 18.7705; Ratio of expression relative to untreated cells, Non-coding chr1:138570107-138632310_F (NIH3T3 cells): 6.319; Ratio of expression relative to untreated cells, Nqo1 (NM_008706) (NIH3T3 cells): 4.968; activating effect on CMA upon knock-down of NCOR1 [1]: completely ablated; CMA activity ([1]; Ctr cells): 22.4 and 17.9 and 26.0; CMA activity ([1]; NCOR(-) (NCoR1 KD) cells): 4.3 and 4.0 and 4.8
